Laboratory results published in patent US10100061B2, “Oxazepine compound and agricultural/horticultural insecticide containing said compound as active ingredient, and method for using the same” (NIHON NOHYAKU CO., LTD., priority 2014, dated 2018).

What was measured:
[1] = tested on: Small Brown Planthopper (Laodelphax Striatellus); assay: Test of insecticidal efficacy against small brown planthopper (Test Example 2); assay type: in vivo; conditions: 500 ppm, rice plants soaked 30 seconds, third-instar larvae, eight days after inoculation; criteria same as in Test Example 1
Text: Test of Insecticidal Efficacy Against Small Brown Planthopper (Laodelphax Striatellus)

[2] = tested on: Green Peach Aphid (Myzus Persicae); assay: Test of preventive value against green peach aphid (Test Example 1); assay type: in vivo; conditions: 500 ppm, sprayed over stems and leaves of potted Chinese cabbages, sixth day after spraying
Protocol: Test of Preventive Value Against Green Peach Aphid (Myzus Persicae)
Chinese cabbages were planted in plastic pots, each with a size of 8 cm in diameter and 8 cm in height, after which green peach aphids were propagated and the number of parasitic insects was examined in each pot. An oxazepine compound or salt thereof expressed by General Formula (I) according to the present invention was dispersed in water and the dispersion was diluted to 500 ppm in the form of a reagent, after which the reagent was sprayed over stems and leaves of potted Chinese cabbages and let dry under wind, and the pots were kept in a greenhouse, and on the sixth day after the reagent was sprayed, the number of green peach aphids living parasitically on each Chinese cabbage was examined and the preventive value was calculated based on the formula below, and judgment was made according to the criteria below. Preventive value=100−{(T×Ca)/(Ta×C)}×100 [Mathematical Formula 1] • Ta: Number of parasitic insects inside the treatment area before spraying • T: Number of parasitic insects inside the treatment area after spraying • Ca: Number of parasitic insects inside the non-treatment area before spraying • C: Number of parasitic insects inside the non-treatment area after spraying Judgment Criteria • A - - - Preventive value: 100% • B - - - Preventive value: 99%˜90% • C - - - Preventive value: 89%˜80% • D - - - Preventive value: 79%˜50%

| SMILES | Corrected insect mortality, judgment [1] | Preventive value, judgment [2] |
| --- | --- | --- |
| C#CCN1C(=O)c2nn(-c3cccnc3)cc2Oc2ccccc21 [1-3] | A to D | A to D |
| N#CCN1C(=O)c2nn(-c3cccnc3)cc2Oc2ccccc21 [1-4] | A to D | A to D |
| O=C1c2nn(-c3cccnc3)cc2Oc2ccccc2N1CC(F)(F)F [1-5] | A to D | A to D |
| O=C1Nc2cccc(F)c2Oc2cn(-c3cccnc3)nc21 [1-6] | A to D | A to D |
| CN1C(=O)c2nn(-c3cccnc3)cc2Oc2c(F)cccc21 [1-7] | A to D | A to D |
| C#CCN1C(=O)c2nn(-c3cccnc3)cc2Oc2c(F)cccc21 [1-8] | A to D | A to D |
| N#CCN1C(=O)c2nn(-c3cccnc3)cc2Oc2c(F)cccc21 [1-9] | A to D | A to D |
| C#CCN1C(=O)c2nn(-c3cccnc3)cc2Oc2cc(F)ccc21 [1-12] | A to D | A to D |
| O=C1Nc2cc(F)ccc2Oc2cn(-c3cccnc3)nc21 [1-14] | A to D | A to D |
| CN1C(=O)c2nn(-c3cccnc3)cc2Oc2ccc(F)cc21 [1-15] | A to D | A to D |
| C#CCN1C(=O)c2nn(-c3cccnc3)cc2Oc2ccc(F)cc21 [1-16] | A to D | A to D |
| O=C1Nc2cccc(Cl)c2Oc2cn(-c3cccnc3)nc21 [1-22] |  | A to D |
| Cc1ccc2c(c1)Oc1cn(-c3cccnc3)nc1C(=O)N2C [1-31] | A to D |  |
| CN(C)CCN1C(=O)c2nn(-c3cccnc3)cc2Oc2ccccc21 [1-69] | A to D |  |
| CN1C(=O)c2nn(-c3cncc(Br)c3)cc2Oc2ccccc21 [1-83] |  | A to D |
| CN1Cc2nn(-c3cccnc3)cc2Oc2ccccc21 [3-2] |  | A to D |
| C#CCN1Cc2nn(-c3cccnc3)cc2Oc2ccccc21 [3-3] | A to D |  |
| N#CCN1Cc2nn(-c3cccnc3)cc2Oc2cc(F)ccc21 [3-5] |  | A to D |
| CC(=O)N1Cc2nn(-c3cccnc3)cc2Oc2ccc(F)cc21 [3-9] |  | A to D |
| C[S+]([O-])CN1C(=O)c2nn(-c3cccnc3)cc2Oc2ccccc21 (stereo not shown) [8-3] |  | A to D |
| CC#CCN1C(=O)c2nn(-c3cccnc3)cc2Oc2ccccc21 [8-5] |  | A to D |
| CC(C)=CCN1C(=O)c2nn(-c3cccnc3)cc2Oc2ccccc21 [8-6] |  | A to D |
| CN(C)C(=O)CN1C(=O)c2nn(-c3cccnc3)cc2Oc2ccccc21 [8-7] |  | A to D |
| NC(=O)CCN1C(=O)c2nn(-c3cccnc3)cc2Oc2ccccc21 [8-8] |  | A to D |
| CC(=O)OCN1C(=O)c2nn(-c3cccnc3)cc2Oc2ccccc21 [8-9] |  | A to D |
| O=C1c2nn(-c3cccnc3)cc2Oc2ccccc2N1CC1OCCO1 [8-11] |  | A to D |

| SMILES | Corrected insect mortality, judgment [1] | Preventive value, judgment [2] |
| --- | --- | --- |
| CN(C)C(=O)N1C(=O)c2nn(-c3cccnc3)cc2Oc2ccccc21 [8-14] |  | A to D |
| O=CCN1C(=O)c2nn(-c3cccnc3)cc2Oc2ccccc21 [8-15] |  | A to D |
| CON=CCN1C(=O)c2nn(-c3cccnc3)cc2Oc2ccccc21 [8-16] |  | A to D |
| O=C1c2nn(-c3cccnc3)cc2Oc2ccccc2N1CCSCCC(F)(F)F [8-17] |  | A to D |
| O=C1c2nn(-c3cccnc3)cc2Oc2ccccc2N1CC[S+]([O-])CCC(F)(F)F (stereo not shown) [8-18] |  | A to D |
| O=C1c2nn(-c3cccnc3)cc2Oc2ccccc2N1CCS(=O)(=O)CCC(F)(F)F [8-19] |  | A to D |
| CCOCN1C(=O)c2nn(-c3cccnc3)cc2Oc2ccccc21 [8-21] | A to D |  |
| COCN1C(=O)c2nn(-c3cccnc3)cc2Oc2c(F)cccc21 [8-22] |  | A to D |
| C=CCN1C(=O)c2nn(-c3cccnc3)cc2Oc2cc(F)ccc21 [8-23] | A to D |  |
| O=C1c2nn(-c3cccnc3)cc2Oc2cc(F)ccc2N1CC1CC1 [8-27] |  | A to D |
| CC(C)CN1C(=O)c2nn(-c3cccnc3)cc2Oc2cc(F)ccc21 [8-28] |  | A to D |
| CCC(C)N1C(=O)c2nn(-c3cccnc3)cc2Oc2cc(F)ccc21 (stereo not shown) [8-29] |  | A to D |
| N#CCCCN1C(=O)c2nn(-c3cccnc3)cc2Oc2cc(F)ccc21 [8-30] |  | A to D |
| N#CC(F)N1C(=O)c2nn(-c3cccnc3)cc2Oc2cc(F)ccc21 (stereo not shown) [8-33] |  | A to D |
| O=C1c2nn(-c3cccnc3)cc2Oc2ccc(F)cc2N1CC1CC1 [8-36] |  | A to D |
| O=C1c2nn(-c3cccnc3)cc2Oc2ccc(F)cc2N1CC(F)(F)F [8-39] |  | A to D |
| O=C1c2nn(-c3cccnc3)cc2Oc2ccc(F)cc2N1CC1OCCO1 [8-43] |  | A to D |
| O=C1c2nn(-c3cccnc3)cc2Oc2ccc(F)cc2N1CCN1CCOCC1 [8-44] |  | A to D |
| CSCN1C(=O)c2nn(-c3cccnc3)cc2Oc2ccc(F)cc21 [8-47] |  | A to D |
| C[S+]([O-])CN1C(=O)c2nn(-c3cccnc3)cc2Oc2ccc(F)cc21 (stereo not shown) [8-48] |  | A to D |
| CC(C#N)N1C(=O)c2nn(-c3cccnc3)cc2Oc2ccc(F)cc21 (stereo not shown) [8-50] |  | A to D |
| N#CCCCN1C(=O)c2nn(-c3cccnc3)cc2Oc2ccc(F)cc21 [8-51] |  | A to D |
| NC(=O)CN1C(=O)c2nn(-c3cccnc3)cc2Oc2ccc(F)cc21 [8-52] |  | A to D |
| O=CN1C(=O)c2nn(-c3cccnc3)cc2Oc2ccc(F)cc21 [8-53] |  | A to D |
| CN1C(=O)c2nn(-c3cccnc3)cc2Oc2ccc(Cl)cc21 [8-55] |  | A to D |
| N#CCN1C(=O)c2nn(-c3cccnc3)cc2Oc2ccc(Cl)cc21 [8-57] | A to D |  |

| SMILES | Corrected insect mortality, judgment [1] | Preventive value, judgment [2] |
| --- | --- | --- |
| C=CCN1C(=O)c2nn(-c3cccnc3)cc2Oc2ccc(Cl)cc21 [8-58] | A to D |  |
| CN1C(=O)c2nn(-c3cccnc3)cc2Oc2cccc(Cl)c21 [8-59] |  | A to D |
| O=C1Nc2ccc(Br)cc2Oc2cn(-c3cccnc3)nc21 [8-60] |  | A to D |
| CN1C(=O)c2nn(-c3cccnc3)cc2Oc2cc(Br)ccc21 [8-61] |  | A to D |
| CN1C(=O)c2nn(-c3cccnc3)cc2Oc2ccc(Br)cc21 [8-63] |  | A to D |
| C=CCN1C(=O)c2nn(-c3cccnc3)cc2Oc2ccc(Br)cc21 [8-64] | A to D |  |
| C#CCN1C(=O)c2nn(-c3cccnc3)cc2Oc2ccc(Br)cc21 [8-65] |  | A to D |
| N#CCN1C(=O)c2nn(-c3cccnc3)cc2Oc2ccc(Br)cc21 [8-66] | A to D |  |
| CN1C(=O)c2nn(-c3cccnc3)cc2Oc2cc(I)ccc21 [8-67] |  | A to D |
| O=C1Nc2ccc(Cl)cc2Oc2c1nn(-c1cccnc1)c2Cl [9-4] |  | A to D |
| N#CCN1C(=O)c2nn(-c3cccnc3)c(Cl)c2Oc2cc(F)ccc21 [9-5] |  | A to D |
| O=C1Nc2ccccc2Nc2cn(-c3cccnc3)nc21 [10-1] |  | A to D |
| C[Si](C)(C)C#CC1=Nc2ccccc2Oc2cn(-c3cccnc3)nc21 [11-4] |  | A to D |
| CN1CCN(C2=Nc3ccccc3Oc3cn(-c4cccnc4)nc32)CC1 [11-12] |  | A to D |
| CN1CCN(C2=Nc3cc(F)ccc3Oc3cn(-c4cccnc4)nc32)CC1 [11-13] |  | A to D |
| c1cncc(-n2cc3c(n2)C(N2CCOCC2)=Nc2ccccc2O3)c1 [11-14] |  | A to D |
| Fc1ccc2c(c1)N=C(N1CCOCC1)c1nn(-c3cccnc3)cc1O2 [11-15] | A to D |  |
| COCOC1=Nc2ccccc2Oc2cn(-c3cccnc3)nc21 [11-16] | A to D |  |
| Cc1nn(C)c2c1N(C)C(=O)c1nn(-c3cccnc3)cc1O2 [14-2] |  | A to D |
| C=CCN1C(=O)c2nn(-c3cccnc3)cc2Oc2c1c(C)nn2C [14-3] | A to D |  |
| C#CCN1C(=O)c2nn(-c3cccnc3)cc2Oc2c1c(C)nn2C [14-4] |  | A to D |
| O=C1Nc2ccsc2Oc2cn(-c3cccnc3)nc21 [15-1] |  | A to D |
| CN1C(=O)c2nn(-c3cccnc3)cc2Oc2sccc21 [15-2] |  | A to D |
| C#CCN1C(=O)c2nn(-c3cccnc3)cc2Oc2sccc21 [15-3] |  | A to D |
| N#CCN1C(=O)c2nn(-c3cccnc3)cc2Oc2sccc21 [15-4] |  | A to D |
